Assay: Relative alpha-tocopherol content within blend before and after cryo-milling
Assay type: physicochemical
From the text: Relative Alpha-Tocopherol Content within Blend Before and after Cryo-Milling: […]

## Cc1c(C)c2c(c(C)c1O)CC[C@@](C)(CCC[C@H](C)CCC[C@H](C)CCCC(C)C)O2 [alpha-tocopherol]
  degradation of alpha-tocopherol with cryo-milling process: did not degrade
